Measurements reported in patent publication US20260265256A1 (IMPACT THERAPEUTICS (SHANGHAI), INC., priority 2023, published 2026).

How the values were obtained:
PDE3A = molecular target: T1, PDE3A (Homo sapiens, UniProt Q14432); assay: PDE3A fluorescence polarization (FP) assay; assay type: biochemical; settings: 2 nM PDE3A, 0.2 μM FAM-cAMP, read-out: IC50 (μM), PDE3A enzyme activity
T1 construct: purchased Sino Biological 11908-H20B1
Experimental: A PDE3A fluorescence polarization (FP) assay in a multi-step format was performed using black, round bottom 384-well plates (Corning, 4514). The testing compounds were serially diluted from stock solutions to 11 concentrations with a 3-fold dilution factor using DMSO. Fifty nL of compound dilutions was mixed with 5 μL of reaction buffer (10 mM Tris-HCl, pH 7.2, 10 mM MgCl2, 0.05% NaN3, 0.1% phosphate-free BSA) containing 0.2 μM FAM-cAMP (BPS, 60200) and 2 nM PDE3A (Sino Biological, 11908-H20B1) enzyme, and incubated for 60 min at 25° C. Afterwards, 15 μL binding agent mixture (Molecular Devices, R8124) was added to each well and the plate was incubated for 60 min at 25° C. The plate was loaded to a BMG PHERAstar FSX to read Fluorescence Polarization (FP) values at a setting of: Ex: 485 nm and Em: 520 nm. Emission light intensity with polarizers parallel (Em|) and emission light intensity with polarizers perpendicular (Em⊥) were recorded. The Polarization (mP) values were calculated using the following formula: mP=(SignalEm|−SignalEm⊥)/(SignalEm|+SignalEm⊥).
Data analysis: • 1) The inhibition % of a compound dose is calculated as:
[formula] • wherein mPMin and mPMax refer to the polarization readings in the condition of substrate only and substrate+enzyme, respectively. • 2) The IC50 values were calculated from non-linear curve fitting using following regression equation using a commercial curve fitting software GraphPad Prism 9.2.0.
wherein X refers to Log of compound concentration and Y refers to % Inhibition.
Table 3 summarize the inhibitory effects of compounds on PDE3A enzyme activity (IC50).

MDA-MB-436 cells = assay: Growth inhibition assay against BRCA mutant human breast cancer MDA-MB-436 cell line (CCK-8, 7 days); assay type: cell-based; settings: 168 h, MDA-MB-436, 7 days, read-out: IC50 (nM), proliferation of human breast cancer cells MDA-MB-436
Experimental: The cells were cultured in complete medium (DMEM medium+10% FBS+Insulin+glutathione). When the confluence reached about 80%, cells were digested and gently dispensed from the bottom of the dish with a 1 mL pipette. Cell suspension was collected and centrifuged at 500 rpm for 3 min. The supernatant was discarded, and the cell pellet were re-suspended in complete medium. The cells were seeded into a culture dish at an appropriate proportion, and then cultured in a 5% CO2 incubator at 37° C. The assay was carried out when the cells were in optimum condition and the confluence was reached 80%. Cells in the logarithmic growth phase were taken to centrifugate, and the culture supernatant was removed. The cells were resuspended in refresh complete medium and counted. The resuspended cells were seeded at 3000/well in a 96-well plate and incubated at 37° C., 5% CO2 incubator overnight. […] The solution was mixed by oscillation. 0.10% DMSO was used as the control.
The next day, the 96-well plate inoculated with cells was taken out from the incubator, and the culture supernatant was removed. Then fresh medium of 195 uL/well and 5 μL/well of 40× test compound solution as mentioned above were added into the 96 well plate, respectively. Finally, the plate was incubated for 7 days in a 37° C. 5% CO2 incubator. The medium containing compound was changed on the fourth day. After 7 days, 20 μL of CCK-8 was added to each well and shaken gently, then was cultured for 4 hours. The plate was shaken for 5 min after incubation, the absorbance values of 450 nm or 650 nm wavelengths were recorded respectively (OD=absorbance value of 450 nm−absorbance value of 650 nm) by using the multifunction readout instrument.
Data were analyzed by software GraphPad Prism 6.0. The inhibitory activity of compounds on cell proliferation was plotted using cell survival rate against the compound concentration as coordinates. Cell survival rate %=(ODcompound−ODbackground)/(ODDMSO−ODbackground)×100.
Table 2 summarizes the inhibitory effect data (IC50) of the compounds on the proliferation of human breast cancer cells MDA-MB-436.

[1] = molecular target: recombinant poly(ADP-ribose) polymerase 2 (PARP2) (Homo sapiens, UniProt Q9UGN5); assay: PARP2 chemiluminescent assay; assay type: biochemical; settings: PARP2 enzyme activity, chemiluminescence, 40 ng enzyme/well
Experimental: The solution of recombinant poly(ADP-ribose) polymerase 1 and 2 (PARP1 and PARP2) (40 ng enzyme/well) and the compounds to be tested were mixed, respectively. The solutions were added to a 96-well plate coated with histone mixture, incubated at room temperature for 1 h, then 50 μL 0.3 ng/mL Streptavidin-HRP was added to each well. The plates were incubated for 30 minutes at room temperature. Finally, the plates were treated with streptavidin-HRP followed by addition of the ELISA ECL substrate to produce chemiluminescence that can be measured using a chemiluminescence reader. Inhibition of the tested compound to PARP1/2 enzyme activity was calculated according to the following formula. [formula] IC50 value is obtained by fitting the s-shaped dose response curve equation by using XL Fit software.

Sequence of recombinant poly(ADP-ribose) polymerase 2 (PARP2) (Q9UGN5 whole entry): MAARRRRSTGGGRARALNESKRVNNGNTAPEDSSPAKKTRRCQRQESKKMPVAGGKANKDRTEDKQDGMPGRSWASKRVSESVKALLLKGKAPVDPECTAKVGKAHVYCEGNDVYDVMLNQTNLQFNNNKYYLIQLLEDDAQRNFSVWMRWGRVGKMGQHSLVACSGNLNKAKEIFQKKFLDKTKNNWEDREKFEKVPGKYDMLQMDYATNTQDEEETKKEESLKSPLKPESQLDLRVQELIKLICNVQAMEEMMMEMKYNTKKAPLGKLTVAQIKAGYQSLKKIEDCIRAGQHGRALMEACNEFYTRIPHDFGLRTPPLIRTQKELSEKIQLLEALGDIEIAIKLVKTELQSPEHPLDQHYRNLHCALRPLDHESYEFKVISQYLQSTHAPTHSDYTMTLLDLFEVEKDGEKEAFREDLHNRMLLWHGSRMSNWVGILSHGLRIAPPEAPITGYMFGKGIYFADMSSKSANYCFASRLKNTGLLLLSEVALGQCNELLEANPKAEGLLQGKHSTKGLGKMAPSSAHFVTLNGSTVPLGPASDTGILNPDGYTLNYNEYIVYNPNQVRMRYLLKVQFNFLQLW
T1 sequence (Q14432 669-1141 limits assumed): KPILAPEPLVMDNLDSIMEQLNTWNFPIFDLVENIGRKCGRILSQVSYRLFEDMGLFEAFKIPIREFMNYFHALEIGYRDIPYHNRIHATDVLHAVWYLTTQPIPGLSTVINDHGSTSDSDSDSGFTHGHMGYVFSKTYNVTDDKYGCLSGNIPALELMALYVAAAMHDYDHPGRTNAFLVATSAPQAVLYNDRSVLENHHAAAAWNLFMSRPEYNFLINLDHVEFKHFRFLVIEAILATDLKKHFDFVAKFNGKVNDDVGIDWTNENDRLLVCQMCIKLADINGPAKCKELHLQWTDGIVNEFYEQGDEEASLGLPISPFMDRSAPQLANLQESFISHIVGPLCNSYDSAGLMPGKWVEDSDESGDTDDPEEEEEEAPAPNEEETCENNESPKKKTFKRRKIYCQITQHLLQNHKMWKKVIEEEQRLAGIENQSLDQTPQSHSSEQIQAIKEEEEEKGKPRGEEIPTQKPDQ

Q: How did the IC50 (PDE3A) turn out when `CNC(=O)c1ccc(-n2cc3c(n2)CN(Cc2ccc4c([nH]c(=O)c5c(F)cnn54)c2F)C3)c(F)n1` [Example 15, 5-(5-((3,6-difluoro-4-oxo-4,5-dihydropyrazolo[1,5-a]quinoxalin-7-yl)methyl)-5,6-dihydropyrrolo[3,4-c]pyrazol-2(4H)-yl)-6-fluoro-N-methylpicolinamide] was run?
A: > 30 µM

Q: What about the IC50 (MDA-MB-436 cells) of the same compound?
A: 1.36 nM

Q: What about the IC50 [1] of the same compound?
A: 373 nM

Q: How did the IC50 (PDE3A) turn out when `CNC(=O)c1ccc(-n2cc3c(n2)CN(Cc2ccc4c([nH]c(=O)c5occc54)c2F)C3)cn1` [Example 28, 5-(5-((6-fluoro-4-oxo-4,5-dihydrofuro[2,3-c]quinolin-7-yl)methyl)-5,6-dihydropyrrolo[3,4-c]pyrazol-2(4H)-yl)-N-methylpicolinamide] was run?
A: 29.4 µM

Q: And the IC50 (MDA-MB-436 cells)?
A: 0.76 nM

Q: And the IC50 [1]?
A: 119 nM

Q: For `CNC(=O)c1ccc(-n2ncc3c2CN(Cc2ccc4c([nH]c(=O)c5c(C)cnn54)c2F)C3)cn1` [Example 1-2, 5-(5-((6-fluoro-3-methyl-4-oxo-4,5-dihydropyrazolo[1,5-a]quinoxalin-7-yl)methyl)-5,6-dihydropyrrolo[3,4-c]pyrazol-1(4H)-yl)-N-methylpicolinamide], which IC50 (PDE3A) is on record?
A: > 25 µM

Q: What about the IC50 (MDA-MB-436 cells) of the same compound?
A: > 100 nM

Q: What about the IC50 [1] of the same compound?
A: > 1000 nM

Q: `CCNC(=O)c1ccc(-n2cc3c(n2)CN(Cc2ccc4c([nH]c(=O)c5c(C)cnn54)c2F)C3)cn1` [Example 6, 5-(5-((6-fluoro-3-methyl-4-oxo-4,5-dihydropyrazolo[1,5-a]quinoxalin-7-yl)methyl)-5,6-dihydropyrrolo[3,4-c]pyrazol-2(4H)-yl)-N-ethylpicolinamide] was tested. Which IC50 (PDE3A) did it give?
A: > 30 µM

Q: What about the IC50 (MDA-MB-436 cells) of the same compound?
A: 2.07 nM

Q: What about the IC50 [1] of the same compound?
A: > 10000 nM

Q: `CNC(=O)c1ccc(-n2cc3c(n2)CN(Cc2ccc4c([nH]c(=O)n5cc(C)nc45)c2F)C3)c(F)n1` [Example 51, 6-fluoro-5-(5-((7-fluoro-2-methyl-5-oxo-5,6-dihydroimidazo[1,2-c]quinazolin-8-yl)methyl)-5,6-dihydropyrrolo[3,4-c]pyrazol-2(4H)-yl)-N-methylpicolinamide] was tested. Which IC50 (PDE3A) did it give?
A: > 30 µM

Q: And the IC50 (MDA-MB-436 cells)?
A: 1.51 nM

Q: And the IC50 [1]?
A: > 10000 nM

Q: With `CNC(=O)c1ccc(-n2cc3c(n2)CN(Cc2ccc4c([nH]c(=O)c5nn(C)cc54)c2F)C3)cn1` [Example 29, 5-(5-((6-fluoro-2-methyl-4-oxo-4,5-dihydro-2H-pyrazolo[3,4-c]quinolin-7-yl)methyl)-5,6-dihydropyrrolo[3,4-c]pyrazol-2(4H)-yl)-N-methylpicolinamide] as the compound, how does the IC50 (PDE3A) read?
A: > 30 µM

Q: And the IC50 (MDA-MB-436 cells)?
A: 1.57 nM

Q: What about the IC50 [1] of the same compound?
A: > 10000 nM

Q: What does the source list for `CNC(=O)c1ccc(-n2cc3c(n2)CN(Cc2ccc4c([nH]c(=O)c5c(F)cnn54)c2F)C3)cn1` [Example 13, 5-(5-((3,6-difluoro-4-oxo-4,5-dihydropyrazolo[1,5-a]quinoxalin-7-yl)methyl)-5,6-dihydropyrrolo[3,4-c]pyrazol-2(4H)-yl)-N-methylpicolinamide]?
A: IC50 (PDE3A): > 30 µM; IC50 (MDA-MB-436 cells): 0.99 nM; IC50 [1]: 42 nM

Q: With `CNC(=O)c1ccc(-c2nc3c(s2)CN(Cc2ccc4c([nH]c(=O)c5c(F)cnn54)c2F)C3)cn1` [Example 42, 5-(5-((3,6-difluoro-4-oxo-4,5-dihydropyrazolo[1,5-a]quinoxalin-7-yl)methyl)-5,6-dihydro-4H-pyrrolo[3,4-d]thiazol-2-yl)-N-methylpicolinamide] as the compound, how does the IC50 (PDE3A) read?
A: > 30 µM

Q: What about the IC50 (MDA-MB-436 cells) of the same compound?
A: 6.04 nM

Q: And the IC50 [1]?
A: 118 nM

Q: What does the source list for `CCNC(=O)c1ccc(-n2cc3c(n2)CN(Cc2ccc4c([nH]c(=O)c5c(F)cnn54)c2F)C3)c(F)n1` [Example 19, 5-(5-((3,6-difluoro-4-oxo-4,5-dihydropyrazolo[1,5-a]quinoxalin-7-yl)methyl)-5,6-dihydropyrrolo[3,4-c]pyrazol-2(4H)-yl)-N-ethyl-6-fluoropicolinamide]?
A: IC50 (PDE3A): > 30 µM; IC50 (MDA-MB-436 cells): 1.57 nM; IC50 [1]: > 10000 nM

Q: What does the source list for `CCNC(=O)c1ccc(-n2cc3c(n2)CN(Cc2ccc4c([nH]c(=O)c5occc54)c2F)C3)c(F)n1` [Example 55, N-ethyl-6-fluoro-5-(5-((6-fluoro-4-oxo-4,5-dihydrofuro[2,3-c]quinolin-7-yl)methyl)-5,6-dihydropyrrolo[3,4-c]pyrazol-2(4H)-yl)picolinamide]?
A: IC50 (PDE3A): > 30 µM; IC50 (MDA-MB-436 cells): 0.81 nM; IC50 [1]: 403 nM

Q: What does the source list for `CNC(=O)c1ccc(-n2cc3c(n2)CN(Cc2ccc4c([nH]c(=O)c5c(F)cnn54)c2F)C3)c(Cl)n1` [Example 16, 5-(5-((3,6-difluoro-4-oxo-4,5-dihydropyrazolo[1,5-a]quinoxalin-7-yl)methyl)-5,6-dihydropyrrolo[3,4-c]pyrazol-2(4H)-yl)-6-chloro-N-methylpicolinamide]?
A: IC50 (PDE3A): > 30 µM; IC50 (MDA-MB-436 cells): 5.65 nM; IC50 [1]: 1190 nM

Q: Which results are given for `CCNC(=O)c1ccc(-n2cc3c(n2)CN(Cc2ccc4c([nH]c(=O)c5cc(F)nn54)c2F)C3)c(F)n1` [Example 57, 5-(5-((2,6-difluoro-4-oxo-4,5-dihydropyrazolo[1,5-a]quinoxalin-7-yl)methyl)-5,6-dihydropyrrolo[3,4-c]pyrazol-2(4H)-yl)-N-ethyl-6-fluoropicolinamide]?
A: IC50 (PDE3A): > 30 µM; IC50 (MDA-MB-436 cells): 1.56 nM; IC50 [1]: > 10000 nM

Q: `CNC(=O)c1ccc(-n2cc3c(n2)CN(Cc2ccc4c([nH]c(=O)n5cc(C)nc45)c2F)C3)cn1` [Example 49, 5-(5-((7-fluoro-2-methyl-5-oxo-5,6-dihydroimidazo[1,2-c]quinazolin-8-yl)methyl)-5,6-dihydropyrrolo[3,4-c]pyrazol-2(4H)-yl)-N-methylpicolinamide] was tested. Which IC50 (PDE3A) did it give?
A: > 30 µM

Q: And the IC50 (MDA-MB-436 cells)?
A: 0.71 nM

Q: How did the IC50 (PDE3A) turn out when `CNC(=O)c1ccc(-n2cc3c(n2)CN(Cc2ccc4c([nH]c(=O)c5occc54)c2F)C3)c(F)n1` [Example 54, 6-fluoro-5-(5-((6-fluoro-4-oxo-4,5-dihydrofuro[2,3-c]quinolin-7-yl)methyl)-5,6-dihydropyrrolo[3,4-c]pyrazol-2(4H)-yl)-N-methylpicolinamide] was run?
A: > 30 µM

Q: What about the IC50 (MDA-MB-436 cells) of the same compound?
A: 1.47 nM

Q: What about the IC50 [1] of the same compound?
A: 255 nM

Q: With `CCNC(=O)c1ccc(-n2cc3c(n2)CN(Cc2ccc4c([nH]c(=O)c5c(F)cnn54)c2F)C3)cn1` [Example 18, 5-(5-((3,6-difluoro-4-oxo-4,5-dihydropyrazolo[1,5-a]quinoxalin-7-yl)methyl)-5,6-dihydropyrrolo[3,4-c]pyrazol-2(4H)-yl)-N-ethylpicolinamide] as the compound, how does the IC50 (PDE3A) read?
A: > 30 µM

Q: And the IC50 (MDA-MB-436 cells)?
A: 0.59 nM

Q: How did the IC50 (PDE3A) turn out when `CNC(=O)c1ccc(-n2cc3c(c2)CN(Cc2ccc4c([nH]c(=O)c5c(F)cnn54)c2F)C3)cn1` [Example 48, 5-(5-((3,6-difluoro-4-oxo-4,5-dihydropyrazolo[1,5-a]quinoxalin-7-yl)methyl)-5,6-dihydropyrrolo[3,4-c]pyrrol-2(4H)-yl)-N-methylpicolinamide] was run?
A: > 30 µM

Q: And the IC50 (MDA-MB-436 cells)?
A: 0.38 nM

Q: And the IC50 [1]?
A: 48 nM
